The source of these data is US11076594B2, “Pyrazolone compound or salt thereof, preparation method therefor, herbicide composition and use thereof” (QINGDAO KINGAGROOT CHEMICAL COMPOUNDS CO., LTD., priority 2015, dated 2021).

Type in all cases: in vivo
The subject of data set [1] is wheat. The data set can be described thus: wheat field test, crop selectivity, greenhouse spray at 4 leaf stage. Particulars: sprayed at 4 leaf stage, 4 weeks after treatment. How it is done: (§1) The activity level standard of harmful plant destruction (i.e. growth control rate) is as follows:
(§2) The above described growth control rate is fresh weight control rate.
(§3) The seeds of alopecurus japonicas, flixweed, shepherd's purse, corn gromwell, chickweed, beckmannia syzigachne, and annual ryegrass and wheat seeds were put into a plastic pot loaded with soil, and then covered with 0.5-2 cm soil, the seeds were allowed to grow in good greenhouse environment. The test plants were treated at 4 leaf stage 2-3 weeks after sowing. The test compounds of the present invention were dissolved in acetone respectively, then added with methyl oleate emulsion and diluted by certain amount of water to certain concentration. The solution was sprayed to the plant with a sprayer. Then the plants were cultured for 4 weeks in greenhouse.

The test system of another data set is crab grass. As to the kind of experiment: weed control effect in post-emergence stage (Table 1). Further details: key: Level 10: completely dead; Level 9: above 95% growth control rate; Level 8: above 90% growth control rate; Level 7: above 80% growth control rate; Level 6: above 70% growth control rate; Level 5: above 60% growth control rate; Level 4: above 50% growth control rate; Level 3: above 20% growth control rate; Level 2: 5%-20% growth control rate; Level 1: below 5% growth control rate. The settings on record: post-emergence spray at 4-5 leaf stage, 250 g/ha active ingredient with 450 kg/ha water, rated after 3 weeks in greenhouse. Summed up: (§4)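 Greenhouse pot test; foliar spray at 4-5 leaf stage; acetone + Tween 80 + water formulation; 3 wk post-treatment fresh-weight control rate.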

Another data set deals with bidens bipinnata. The description is as above. Particulars: post-emergence spray at 4-5 leaf stage, 250 g/ha active ingredient with 450 kg/ha water, rated after 3 weeks in greenhouse. Also on record: key: Level 10: completely dead; Level 9: above 95% growth control rate; Level 8: above 90% growth control rate; Level 7: above 80% growth control rate; Level 6: above 70% growth control rate; Level 5: above 60% growth control rate; Level 4: above 50% growth control rate; Level 3: above 20% growth control rate; Level 2: 5%-20% growth control rate; Level 1: below 5% growth control rate. The gist of the method: as §4

The subject of the next data set is foxtail. The description is as above. Further details: key: Level 10: completely dead; Level 9: above 95% growth control rate; Level 8: above 90% growth control rate; Level 7: above 80% growth control rate; Level 6: above 70% growth control rate; Level 5: above 60% growth control rate; Level 4: above 50% growth control rate; Level 3: above 20% growth control rate; Level 2: 5%-20% growth control rate; Level 1: below 5% growth control rate. Particulars: post-emergence spray at 4-5 leaf stage, 250 g/ha active ingredient with 450 kg/ha water, rated after 3 weeks in greenhouse. Summed up: as §4

Another data set has as its system Indian mallow. Described as above. Further details: key: Level 10: completely dead; Level 9: above 95% growth control rate; Level 8: above 90% growth control rate; Level 7: above 80% growth control rate; Level 6: above 70% growth control rate; Level 5: above 60% growth control rate; Level 4: above 50% growth control rate; Level 3: above 20% growth control rate; Level 2: 5%-20% growth control rate; Level 1: below 5% growth control rate. The settings on record: post-emergence spray at 4-5 leaf stage, 250 g/ha active ingredient with 450 kg/ha water, rated after 3 weeks in greenhouse. The gist of the method:
as §4

The next data set deals with echinochloa. Described as above. Further details: key: Level 10: completely dead; Level 9: above 95% growth control rate; Level 8: above 90% growth control rate; Level 7: above 80% growth control rate; Level 6: above 70% growth control rate; Level 5: above 60% growth control rate; Level 4: above 50% growth control rate; Level 3: above 20% growth control rate; Level 2: 5%-20% growth control rate; Level 1: below 5% growth control rate. Particulars: post-emergence spray at 4-5 leaf stage, 250 g/ha active ingredient with 450 kg/ha water, rated after 3 weeks in greenhouse. Summed up:
as §4

The test system of another data set is rorippa indica. The data set is described as above. Further details: key: Level 10: completely dead; Level 9: above 95% growth control rate; Level 8: above 90% growth control rate; Level 7: above 80% growth control rate; Level 6: above 70% growth control rate; Level 5: above 60% growth control rate; Level 4: above 50% growth control rate; Level 3: above 20% growth control rate; Level 2: 5%-20% growth control rate; Level 1: below 5% growth control rate. Particulars: post-emergence spray at 4-5 leaf stage, 250 g/ha active ingredient with 450 kg/ha water, rated after 3 weeks in greenhouse. The gist of the method: as §4

Another data set deals with rice. As to the kind of experiment: post-emergence stage experiment, crop (Table 1). The settings on record: post-emergence spray at 4-5 leaf stage, 250 g/ha active ingredient with 450 kg/ha water, rated after 3 weeks in greenhouse. The gist of the method:
as §4

In a further data set the test system is alopecurus japonicas. The data set can be described thus: wheat field resistant weed control, greenhouse spray at 4 leaf stage. The settings on record: sprayed at 4 leaf stage, 4 weeks after treatment, resistant to ALS and ACCase inhibitor herbicides. How it is done:
as §1, §2, §3

Data set [2] relates to wheat. The data set can be described thus: post-emergence stage experiment, crop (Table 1). Particulars: post-emergence spray at 4-5 leaf stage, 250 g/ha active ingredient with 450 kg/ha water, rated after 3 weeks in greenhouse. Summed up:
as §4

The next data set deals with corn. As to the kind of experiment: post-emergence stage experiment, crop (Table 1). The settings on record: post-emergence spray at 4-5 leaf stage, 250 g/ha active ingredient with 450 kg/ha water, rated after 3 weeks in greenhouse. The gist of the method: as §4

Structures are written as SMILES.

Regarding `CCS(=O)(=O)Oc1c(C(=O)c2ccc(C(F)(F)F)c(N3CCCC3=O)c2Cl)c(C)nn1C` [Compound 019], the “Wheat (activity level, crop damage)” value is 0 in the data set on wheat [1] (2 g/mu); 0 with wheat [1] (4 g/mu); 2 (Level 2: 5%-20% growth control rate) in the data set with wheat [1] (8 g/mu); 3 (Level 3: above 20% growth control rate) in the data set with wheat [1] (16 g/mu); 4 (Level 4: above 50% growth control rate) in the data set on wheat [1] (32 g/mu). The “weed control effect, Crab grass (level)” value in the data set with crab grass is reported as 9 (Level 9: above 95% growth control rate). The “weed control effect, Bidens bipinnata (level)” value in the data set with bidens bipinnata is 9 (Level 9: above 95% growth control rate). The “weed control effect, Green foxtail (level)” value in the data set on foxtail is given as 10. Further, the “weed control effect, Indian mallow (level)” value in the data set with Indian mallow turned out to be 10. Further, the “weed control effect, Echinochloa (level)” value in the data set with echinochloa is 9 (Level 9: above 95% growth control rate). The “weed control effect, Rorippa indica (level)” value in the data set with rorippa indica is on record as 9 (Level 9: above 95% growth control rate). Further, in the data set with rice, the “effect on crop, Rice (level)” value is given as 7 (Level 7: above 80% growth control rate). The “Alopecurus japonicas weed controlling effect (activity level)” value in the data set with alopecurus japonicas (1 g/mu) was 1 (Level 1: below 5% growth control rate); in the data set on alopecurus japonicas (2 g/mu), 4 (Level 4: above 50% growth control rate); with alopecurus japonicas (4 g/mu), 6 (Level 6: above 70% growth control rate); in the data set with alopecurus japonicas (8 g/mu), 6 (Level 6: above 70% growth control rate). In addition, the “effect on crop, Wheat (level)” value with wheat [2] worked out at 0.

For `COC(=O)Oc1c(C(=O)c2ccc(C(F)(F)F)c(N3CCCC3=O)c2Cl)c(C)nn1C` [Compound 020], the “Wheat (activity level, crop damage)” value in the data set with wheat [1] (2 g/mu) is given as 1 (Level 1: below 5% growth control rate); in the data set on wheat [1] (4 g/mu), 3 (Level 3: above 20% growth control rate); in the data set on wheat [1] (8 g/mu), 3 (Level 3: above 20% growth control rate); in the data set with wheat [1] (16 g/mu), 4 (Level 4: above 50% growth control rate); in the data set with wheat [1] (32 g/mu), 4 (Level 4: above 50% growth control rate). The “weed control effect, Crab grass (level)” value in the data set with crab grass is listed as 10. For the same compound, the “weed control effect, Bidens bipinnata (level)” value in the data set on bidens bipinnata is 9 (Level 9: above 95% growth control rate). Also, the “weed control effect, Green foxtail (level)” value in the data set on foxtail came out at 10. The “weed control effect, Indian mallow (level)” value with Indian mallow was found to be 10. Besides, the “weed control effect, Echinochloa (level)” value in the data set with echinochloa is on record as 10. Moreover, in the data set on rorippa indica, the “weed control effect, Rorippa indica (level)” value is recorded as 9 (Level 9: above 95% growth control rate). Moreover, the “effect on crop, Rice (level)” value in the data set with rice is listed as 8 (Level 8: above 90% growth control rate). In addition, the “Alopecurus japonicas weed controlling effect (activity level)” value in the data set with alopecurus japonicas (1 g/mu) was 1 (Level 1: below 5% growth control rate); in the data set with alopecurus japonicas (2 g/mu), 6 (Level 6: above 70% growth control rate); in the data set with alopecurus japonicas (4 g/mu), 6 (Level 6: above 70% growth control rate); with alopecurus japonicas (8 g/mu), 8 (Level 8: above 90% growth control rate). For the same compound, in the data set on wheat [2], the “effect on crop, Wheat (level)” value stood at 0.

As to `CCc1nn(CC)c(O)c1C(=O)c1ccc(C(F)(F)F)c(-n2cc(C)cn2)c1Cl` [Compound 142], the “weed control effect, Crab grass (level)” value with crab grass is recorded as 2 (Level 2: 5%-20% growth control rate). In addition, the “weed control effect, Bidens bipinnata (level)” value in the data set with bidens bipinnata was 5 (Level 5: above 60% growth control rate). The “weed control effect, Green foxtail (level)” value in the data set with foxtail was 6 (Level 6: above 70% growth control rate). Moreover, the “weed control effect, Indian mallow (level)” value in the data set on Indian mallow is on record as 5 (Level 5: above 60% growth control rate). Besides, in the data set with echinochloa, the “weed control effect, Echinochloa (level)” value is listed as 10. Moreover, in the data set on rorippa indica, the “weed control effect, Rorippa indica (level)” value is 3 (Level 3: above 20% growth control rate). Also, the “effect on crop, Rice (level)” value in the data set on rice is 7 (Level 7: above 80% growth control rate). The “effect on crop, Wheat (level)” value in the data set with wheat [2] is 2 (Level 2: 5%-20% growth control rate). Also, the “effect on crop, Corn (level)” value in the data set with corn is recorded as 3 (Level 3: above 20% growth control rate).

`CCn1nc(C2CC2)c(C(=O)c2ccc(C(F)(F)F)c(-n3cc(C)cn3)c2Cl)c1O` [Compound 144]: the “weed control effect, Crab grass (level)” value with crab grass was 2 (Level 2: 5%-20% growth control rate). The “weed control effect, Bidens bipinnata (level)” value in the data set with bidens bipinnata came to 10. Moreover, in the data set on foxtail, the “weed control effect, Green foxtail (level)” value is reported as 9 (Level 9: above 95% growth control rate). Further, in the data set on Indian mallow, the “weed control effect, Indian mallow (level)” value is 10. The “weed control effect, Echinochloa (level)” value in the data set on echinochloa worked out at 10. For the same compound, the “weed control effect, Rorippa indica (level)” value with rorippa indica was 2 (Level 2: 5%-20% growth control rate). The “effect on crop, Rice (level)” value with rice is listed as 8 (Level 8: above 90% growth control rate). In addition, the “effect on crop, Wheat (level)” value with wheat [2] amounted to 0. The “effect on crop, Corn (level)” value in the data set on corn is reported as 0.

Regarding `CCn1nc(C2CC2)c(C(=O)c2ccc(C(F)(F)F)c(-n3cc(C)cn3)c2Cl)c1OC(=O)c1cn(C)nc1C` [Compound 145], the “weed control effect, Crab grass (level)” value in the data set with crab grass is reported as 4 (Level 4: above 50% growth control rate). In addition, in the data set on bidens bipinnata, the “weed control effect, Bidens bipinnata (level)” value is recorded as 10. Further, the “weed control effect, Green foxtail (level)” value with foxtail is 8 (Level 8: above 90% growth control rate). Further, the “weed control effect, Indian mallow (level)” value in the data set on Indian mallow was 4 (Level 4: above 50% growth control rate). In addition, in the data set with echinochloa, the “weed control effect, Echinochloa (level)” value is recorded as 10. Also, the “weed control effect, Rorippa indica (level)” value in the data set on rorippa indica is given as 1 (Level 1: below 5% growth control rate). Besides, the “effect on crop, Rice (level)” value in the data set with rice is listed as 9 (Level 9: above 95% growth control rate). Further, the “effect on crop, Wheat (level)” value with wheat [2] is given as 1 (Level 1: below 5% growth control rate). The “effect on crop, Corn (level)” value in the data set with corn came out at 0.
